# Assay results reported in patent US10689377B2 (Mirati Therapeutics, Inc., priority 2017, dated 2020).
# Biological target: KRas G12C (Homo sapiens, UniProt P01116, G12C)
# Test: Cellular inhibition of KRas G12C measured by Phospho-ERK in NCI-H358 cells
# Format: cell-based
# Conditions: pERK(Thr202/Tyr204) normalized with GAPDH, NCI-H358 cells, 3 hours; read-out: IC50
# How it was run: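 Ratio of phospho-ERK(Thr202/Tyr204) to GAPDH, read by near-infrared secondary antibodies on fixed, permeabilised NCI-H358 cells, expressed relative to DMSO control. Compound exposure was 3 h at 0.5% DMSO. IC50 values come from 4-parameter curve fits.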
# KRas G12C, sequence (P01116 1-188 isoform P01116-2 G12C): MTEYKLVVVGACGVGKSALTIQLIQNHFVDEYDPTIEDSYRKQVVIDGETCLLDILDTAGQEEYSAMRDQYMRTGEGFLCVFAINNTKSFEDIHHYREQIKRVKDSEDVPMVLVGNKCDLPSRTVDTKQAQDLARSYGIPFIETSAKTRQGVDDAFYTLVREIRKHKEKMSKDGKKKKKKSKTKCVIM
row,Compound,IC50 [nM]
1,"C=CC(=O)N1CCN(c2nc(OC[C@@H]3CCCN3C)nc3c2CCN(c2c(C)ccc(F)c2C)C3)C[C@@H]1CC#N [Example 349, 2-((S)-1-acryloyl-4-(7-(3-fluoro-2,6-dimethylphenyl)-2-(((S)-1-methylpyrrolidin-2-yl)methoxy)-5,6,7,8-tetrahydropyrido[3,4-d]pyrimidin-4-yl)piperazin-2-yl)acetonitrile]",0.1 to 1000
2,"C=CC(=O)N1CCN(c2nc(OC[C@@H]3CCN(C)C3)nc3c2CCN(c2cc(O)cc4ccccc24)C3)C[C@@H]1CC#N [Example 350, 2-((S)-1-acryloyl-4-(7-(3-hydroxynaphthalen-1-yl)-2-(((R)-1-methylpyrrolidin-3-yl)methoxy)-5,6,7,8-tetrahydropyrido[3,4-d]pyrimidin-4-yl)piperazin-2-yl)acetonitrile]",0.1 to 1000
3,"C=CC(=O)N1CCN(c2nc(OCc3ncc[nH]3)nc3c2CCN(c2cccc4ccccc24)C3)C[C@@H]1CC#N [Example 351, 2-[(2S)-4-[2-(1H-imidazol-2-ylmethoxy)-7-(1-naphthyl)-6,8-dihydro-5H-pyrido[3,4-d]pyrimidin-4-yl]-1-prop-2-enoyl-piperazin-2-yl]acetonitrile]",0.1 to 1000
4,"C=CC(=O)N1CCN(c2nc(OC[C@@H]3CCCN3C)nc3c2CCN(c2cnccc2C2CC2)C3)C[C@@H]1CC#N [Example 352, 2-[(2S)-4-[7-(4-cyclopropyl-3-pyridyl)-2-[[(2S)-1-methylpyrrolidin-2-yl]methoxy]-6,8-dihydro-5H-pyrido[3,4-d]pyrimidin-4-yl]-1-prop-2-enoyl-piperazin-2-yl]acetonitrile]",0.1 to 1000
5,"C=CC(=O)N1CCN(c2nc(OC[C@@H]3CCCN3C)nc3c2CCN(c2cccc4ccccc24)C3)[C@H](C)C1 [Example 353, 1-[(3R)-3-methyl-4-[2-[[(2S)-1-methylpyrrolidin-2-yl]methoxy]-7-(1-naphthyl)-6,8-dihydro-5H-pyrido[3,4-d]pyrimidin-4-yl]piperazin-1-yl]prop-2-en-1-one]",> 1000
6,"C=CC(=O)N1CCN(c2nc(OC[C@@H]3CCCN3C)nc3c2CCN(c2cccc4ccccc24)C3)C(C)(C)C1 [Example 354, 1-[3,3-dimethyl-4-[2-[[(2S)-1-methylpyrrolidin-2-yl]methoxy]-7-(1-naphthyl)-6,8-dihydro-5H-pyrido[3,4-d]pyrimidin-4-yl]piperazin-1-yl]prop-2-en-1-one]",> 1000
7,"C=CC(=O)N1CCN(c2nc(OC[C@@H]3C[C@@H](F)CN3C)nc3c2CCN(c2cc(OC)cc4ccccc24)C3)CC1 [Example 355, 1-[4-[2-[[(2S,4R)-4-fluoro-1-methyl-pyrrolidin-2-yl]methoxy]-7-(3-methoxy-1-naphthyl)-6,8-dihydro-5H-pyrido[3,4-d]pyrimidin-4-yl]piperazin-1-yl]prop-2-en-1-one]",> 1000
8,"C=CC(=O)N1CCN(c2nc(OC[C@@H]3C[C@@H](OC)CN3C)nc3c2CCN(c2cc(OC)cc4ccccc24)C3)CC1 [Example 356, 1-[4-[2-[[(2S,4R)-4-methoxy-1-methyl-pyrrolidin-2-yl]methoxy]-7-(3-methoxy-1-naphthyl)-6,8-dihydro-5H-pyrido[3,4-d]pyrimidin-4-yl]piperazin-1-yl]prop-2-en-1-one]",> 1000
9,"C=CC(=O)N1CCN(c2nc(OC[C@@H]3C[C@@H](F)CN3C)nc3c2CCN(c2cc(O)cc4ccccc24)C3)CC1 [Example 357, 1-[4-[2-[[(2S,4R)-4-fluoro-1-methyl-pyrrolidin-2-yl]methoxy]-7-(3-hydroxy-1-naphthyl)-6,8-dihydro-5H-pyrido[3,4-d]pyrimidin-4-yl]piperazin-1-yl]prop-2-en-1-one]",0.1 to 1000
10,"C#CC[C@H]1CN(c2nc(OC[C@@H]3CCCN3C)nc3c2CCN(c2cccc4ccccc24)C3)CCN1C(=O)C=C [Example 358, 1-[(2S)-4-[2-[[(2S)-1-methylpyrrolidin-2-yl]methoxy]-7-(1-naphthyl)-6,8-dihydro-5H-pyrido[3,4-d]pyrimidin-4-yl]-2-prop-2-ynyl-piperazin-1-yl]prop-2-en-1-one]",0.1 to 1000
11,"C=CC(=O)N1CCN(c2nc(OC[C@@H]3CCCN3C)nc3c2CCN(c2cccc4cccc(CC)c24)C3)C[C@@H]1CC#N [Example 360, 2-[(2S)-4-[7-(8-ethyl-1-naphthyl)-2-[[(2S)-1-methylpyrrolidin-2-yl]methoxy]-6,8-dihydro-5H-pyrido[3,4-d]pyrimidin-4-yl]-1-prop-2-enoyl-piperazin-2-yl]acetonitrile]",0.1 to 1000
12,"C=CC(=O)N1CCN(c2nc(OC[C@@H]3CCN(C)C3)nc3c2CCN(c2cccc4cccc(Cl)c24)C3)C[C@@H]1CC#N [Example 361, 2-[(2S)-4-[7-(8-chloro-1-naphthyl)-2-[[(3R)-1-methylpyrrolidin-3-yl]methoxy]-6,8-dihydro-5H-pyrido[3,4-d]pyrimidin-4-yl]-1-prop-2-enoyl-piperazin-2-yl]acetonitrile]",0.1 to 1000
13,"C=CC(=O)N1CCN(c2nc(OCCN3CCCCC3)nc3c2CCN(c2cccc4cccc(Cl)c24)C3)C[C@@H]1CC#N [Example 362, 2-[(2S)-4-[7-(8-chloro-1-naphthyl)-2-[2-(1-piperidyl)ethoxy]-6,8-dihydro-5H-pyrido[3,4-d]pyrimidin-4-yl]-1-prop-2-enoyl-piperazin-2-yl]acetonitrile]",0.1 to 1000
14,"C=CC(=O)N1CCN(c2nc(OC[C@H]3CN(C)CCO3)nc3c2CCN(c2cccc4cccc(Cl)c24)C3)C[C@@H]1CC#N [Example 363, 2-[(2S)-4-[7-(8-chloro-1-naphthyl)-2-[[(2R)-4-methylmorpholin-2-yl]methoxy]-6,8-dihydro-5H-pyrido[3,4-d]pyrimidin-4-yl]-1-prop-2-enoyl-piperazin-2-yl]acetonitrile]",0.1 to 1000
15,"C=CC(=O)N1CCN(c2nc(OC[C@@H]3CCCN3C)nc3c2CCN(c2cccc(C)c2C(F)(F)F)C3)C[C@@H]1CC#N [Example 364, 2-[(2S)-4-[2-[[(2S)-1-methylpyrrolidin-2-yl]methoxy]-7-[3-methyl-2-(trifluoromethyl)phenyl]-6,8-dihydro-5H-pyrido[3,4-d]pyrimidin-4-yl]-1-prop-2-enoyl-piperazin-2-yl]acetonitrile]",0.1 to 1000
16,"C=CC(=O)N1CCN(c2nc(OCCCN3C[C@@H]4C[C@H]3CO4)nc3c2CCN(c2cccc4cccc(Cl)c24)C3)C[C@@H]1CC#N [Example 365, 2-[(2S)-4-[7-(8-chloro-1-naphthyl)-2-[3-[(1S,4S)-2-oxa-5-azabicyclo[2.2.1]heptan-5-yl]propoxy]-6,8-dihydro-5H-pyrido[3,4-d]pyrimidin-4-yl]-1-prop-2-enoyl-piperazin-2-yl]acetonitrile]",0.1 to 1000
17,"C=CC(=O)N1CCN(c2nc(OC[C@@H]3CC(F)(F)CN3C)nc3c2CCN(c2cccc4cccc(Cl)c24)C3)C[C@@H]1CC#N [Example 366, 2-[(2S)-4-[7-(8-chloro-1-naphthyl)-2-[[(2S)-4,4-difluoro-1-methyl-pyrrolidin-2-yl]methoxy]-6,8-dihydro-5H-pyrido[3,4-d]pyrimidin-4-yl]-1-prop-2-enoyl-piperazin-2-yl]acetonitrile]",0.1 to 1000
18,"C=CC(=O)N1C[C@H](C)N(c2nc(OC[C@@H]3CCCN3C)nc3c2CCN(c2cccc4ccccc24)C3)C[C@@H]1CC#N [Example 368, 2-((2S,5S)-1-acryloyl-5-methyl-4-(2-(((S)-1-methylpyrrolidin-2-yl)methoxy)-7-(naphthalen-1-yl)-5,6,7,8-tetrahydropyrido[3,4-d]pyrimidin-4-yl)piperazin-2-yl)acetonitrile]",> 1000
19,"C=CC(=O)N1CCN(c2nc(OCCCN3C[C@@H]4C[C@H]3CO4)nc3c2CCN(c2cccc4cccc(C)c24)C3)C[C@@H]1CC#N [Example 369, 2-((S)-4-(2-(3-((1S,4S)-2-oxa-5-azabicyclo[2.2.1]heptan-5-yl)propoxy)-7-(8-methylnaphthalen-1-yl)-5,6,7,8-tetrahydropyrido[3,4-d]pyrimidin-4-yl)-1-acryloylpiperazin-2-yl)acetonitrile]",0.1 to 1000
20,"C=CC(=O)N1CCN(c2nc(OCCCN3CCOCC3)nc3c2CCN(c2cccc4cccc(C)c24)C3)C[C@@H]1CC#N [Example 370, (S)-2-(1-acryloyl-4-(7-(8-methylnaphthalen-1-yl)-2-(3-morpholinopropoxy)-5,6,7,8-tetrahydropyrido[3,4-d]pyrimidin-4-yl)piperazin-2-yl)acetonitrile]",0.1 to 1000
21,"C=CC(=O)N1CCN(c2nc(OCCC(=O)N(C)C)nc3c2CCN(c2cccc4cccc(C)c24)C3)C[C@@H]1CC#N [Example 371, (S)-3-((4-(4-acryloyl-3-(cyanomethyl)piperazin-1-yl)-7-(8-methylnaphthalen-1-yl)-5,6,7,8-tetrahydropyrido[3,4-d]pyrimidin-2-yl)oxy)-N,N-dimethylpropanamide]",0.1 to 1000
22,"C=CC(=O)N1CCN(c2nc(OC[C@@H]3CCCN3C)nc3c2CCN(c2ccccc2CC(F)(F)F)C3)CC1CC#N (stereo partly drawn) [Example 374, 2-(1-acryloyl-4-(2-(((S)-1-methylpyrrolidin-2-yl)methoxy)-7-(2-(2,2,2-trifluoroethyl)phenyl)-5,6,7,8-tetrahydropyrido[3,4-d]pyrimidin-4-yl)piperazin-2-yl)acetonitrile]",> 1000
23,"C=CC(=O)N1CCN(c2nc(OC[C@@H]3CCCN3C)nc3c2CCN(c2ccncc2C(F)(F)F)C3)CC1CC#N (stereo partly drawn) [Example 375, 2-(1-acryloyl-4-(2-(((S)-1-methylpyrrolidin-2-yl)methoxy)-7-(3-(trifluoromethyl)pyridin-4-yl)-5,6,7,8-tetrahydropyrido[3,4-d]pyrimidin-4-yl)piperazin-2-yl)acetonitrile]",> 1000
24,"CC#CC(=O)N1CCN(c2nc(OC[C@@H]3CCCN3C)nc3c2CCN(c2cccc4ccccc24)C3)CC1CC#N (stereo partly drawn) [Example 376, 2-(1-(but-2-ynoyl)-4-(2-(((S)-1-methylpyrrolidin-2-yl)methoxy)-7-(naphthalen-1-yl)-5,6,7,8-tetrahydropyrido[3,4-d]pyrimidin-4-yl)piperazin-2-yl)acetonitrile 2,2,2-trifluoroacetate]",0.1 to 1000
